Patent US20240279190A1, “COMPOUNDS FOR MODULATING PLATELET-TYPE 12-(S)-LIPOXYGENASE AND METHODS OF USE FOR SAME” (The Regents of The University of California, priority 2021, published 2024)

Experiments:
[1] = biological target: T1, 12-LOX mutant A417I/V418M/S594T (Homo sapiens, UniProt P18054, A417I/S594T/V418M); assay: UV-Vis-based IC50 assay, A417I/V418M/S594T mutant; assay type: biochemical
T1 construct: 6xHis (N); made in house; pFastBac1 shuttle vector
T1 sequence (P18054 1-663 A417I/V418M/S594T): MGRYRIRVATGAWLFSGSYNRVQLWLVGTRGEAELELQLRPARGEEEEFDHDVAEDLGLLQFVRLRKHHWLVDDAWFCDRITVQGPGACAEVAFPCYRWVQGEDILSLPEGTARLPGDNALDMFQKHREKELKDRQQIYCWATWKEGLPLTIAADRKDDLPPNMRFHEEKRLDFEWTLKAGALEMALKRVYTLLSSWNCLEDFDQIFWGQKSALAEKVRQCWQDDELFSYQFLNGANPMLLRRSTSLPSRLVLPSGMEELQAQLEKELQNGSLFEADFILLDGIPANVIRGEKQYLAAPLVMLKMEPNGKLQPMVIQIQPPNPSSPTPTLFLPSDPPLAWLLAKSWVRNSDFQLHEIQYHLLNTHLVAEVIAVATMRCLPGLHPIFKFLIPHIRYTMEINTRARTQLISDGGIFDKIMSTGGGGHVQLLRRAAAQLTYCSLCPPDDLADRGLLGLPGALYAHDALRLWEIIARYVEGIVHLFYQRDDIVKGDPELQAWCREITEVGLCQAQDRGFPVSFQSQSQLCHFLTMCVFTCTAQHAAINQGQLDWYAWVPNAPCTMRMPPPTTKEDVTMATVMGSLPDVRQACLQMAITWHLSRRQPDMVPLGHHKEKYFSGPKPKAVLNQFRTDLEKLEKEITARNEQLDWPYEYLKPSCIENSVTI
Excerpt: Based on the ML355 binding mode predicted by the modeling, all residues within 5 Å of any atom of ML355 were selected for experimental mutagenesis. The selected residues were replaced with amino acids with either bulkier or smaller side chains in order to determine what specific interactions play a role in inhibitor binding. […] The numbering refers to the UniProt accession number P18054 sequence, with the N-terminal methionine assigned as amino acid number one. The primers for all mutants were designed using the online QuikChange Primer Design tool (http://www.genomics.agilent.com/primerDesignProgram.jsp) from Agilent Technologies (CA, USA). The mutations were introduced by using the QuikChange® II XL site-directed mutagenesis kit from Agilent, following the instructions in the protocol provided. […]
The wild type 12-LOX (wt-12-LOX) enzyme and its mutants were expressed as fusion proteins, with an N-terminal 6×His tag, and were affinity purified by nickel-iminodiacetic acid agarose using FPLC (Biorad).
The percent inhibition was determined by comparing the enzyme rates of the control (DMSO solvent) and the inhibitor sample by following the formation of the conjugated diene product at 234 nm (ε=25,000 M^−1cm^−1). […] The substrate concentration was quantitatively determined by allowing the enzymatic reaction to go to completion in the presence of soybean LOX-1. […]

[2] = test system: human islets; assay: Glucose stimulated insulin secretion (GSIS) of human islets treated with PIC; assay type: cell-based
Experimental: Human islets from nondiabetic donors were received from the Integrated Islet Distribution Program or Prodo Laboratories (Aliso Viejo, CA) (Table 1). Characteristics of islets and donors are summarized in the below table. Islets were incubated in CMRL-1066 medium supplemented with 10% fetal bovine serum and 1% Pen-Strept overnight at 37° C. in 5% CO2 for recovery from shipment. On the next day, islets were transferred to CMRL-1066 supplemented with 5% fetal bovine serum and 1% Pen-Strept. A portion of the islets were randomly selected and incubated with a mixture of human PICs, […] tumor necrosis factor α, […] interferon-γ, and […] IL-1β (all from BD Biosciences, San Jose, CA) in the presence or absence of 1 μmol/L compound LOX-12-001. Compound LOX-12-001 was added 30 minutes before the addition of pro-inflammatory cytokines (PIC).
Use of Krebs-Ringer buffer (KRB) for glucose-stimulated insulin secretion (GSIS) was previously published. For batch assays, islets treated with PIC in the presence or absence of compound LOX-12-001 (1 μM) for 24 hours were transferred to KRB without glucose and were incubated for 1 hour at 37° C. in 5% CO2 in the absence of PIC and compound LOX-12-001. Thereafter, 50 islet equivalents (IEQs) per well were transferred to six-well plates filled with 1 mL of KRB containing 3 mmol/L or 18 mmol/L of glucose and were incubated for 1 hour at 37° C. in 5% CO2. Each condition was performed in triplicate. After incubation, supernatant was collected for determination of insulin secretion by human insulin enzyme-linked immunosorbent assay (Mercodia, Winston-Salem, NC).
Data are presented as mean±standard error of the mean and were analyzed using Two-way Annova analysis of variance Sidak's multiple comparison test (Prism software, Irvine, CA) as indicated in each figure. P<0.05 was considered significant.

SMILES: COc1cccc(CNc2ccc(S(=O)(=O)Nc3nc4c(ccc5ccccc54)s3)cc2)c1O [Compound LOX-12-001, 4-((2-hydroxy-3-methoxybenzyl)amino)-N-(naphtho[1,2-d]thiazol-2-yl)benzenesulfonamide]
- IC50 [1]: > 20 µM
- inhibition at 20 µM ([1]; 20 uM inhibitor, read-out: Percent inhibition at 20 uM inhibitor): 44%
- insulin secretion ([2]; 3 mmol/L glucose, PIC plus 1 μM compound for 24 hrs): 140+/−3 mU/L
- insulin secretion ([2]; 3 mmol/L glucose, compound only (1 μM), no PIC): 25+/−5 mU/L
- insulin secretion ([2]; 18 mmol/L glucose, PIC plus 1 μM compound for 24 hrs): 352+/−10 mU/L
- insulin secretion ([2]; 18 mmol/L glucose, compound only (1 μM), no PIC): 128+/−13 mU/L
